Assay results as given in patent publication US20090176759A1, “LEUKEMIC STEM CELL ABLATION” (ChemGenex Pharmaceuticals, Inc., priority 2007, published 2009).

Key:
[1] = system: ABL; test: Western Blot analysis of ABL expression; type: cell-based
Method: (§1) In FIG. 1A the number of viable cells at the indicated drug concentrations was determined by trypan blue. In FIG. 1B the expression of ABL and MCL-1 in K562 (myeloid) cells is inhibited by HHT. In FIG. 1C the expression of ABL in lymphoid cells with BCR-ABL or the BCR-ABL T315I mutation is inhibited by HHT.
(§2) Antibodies for Western Blot analysis against c-ABL, Mcl-1 and β-actin were purchased from Santa Cruz Biothechology (Santa Cruz, Calif.). Protein lysates were prepared by lysing cells in RIPA buffer and immunoprecipitation. The retroviral vector MSCV-IRES-eGFP carrying the BCR-ABL cDNA was used to make virus stock for bone marrow transduction/transplantation. Four- to 10-week-old wild-type BABL/c or C57BL/6 (The Jackson Laboratory) and homozygous SRC triple gene knockout (Lyn−/−Hck−/−Fgr−/−) mice were used for leukemogenesis experiments. HHT (ChemGenex Pharmaceuticals, Inc, CA) was dissolved in accompanying diluent to a stock concentration of 1 mg/ml. Further dilutions were made to working concentrations using media or water.

[2] = system: MCL-1; test: Western Blot analysis of MCL-1 expression in K562 cells; type: cell-based; conditions: K562 (myeloid) cells
Method: as §1, §2

[3] = system: K562 myeloid cells; test: Proliferation, number of viable cells determined by trypan blue; type: cell-based
Method: as §1, §2

[4] = system: B-cells containing BCR-ABL-WT; test: as above; type: cell-based
Method: as §1, §2

[5] = system: B-cells containing BCR-ABL-T315I; test: as above; type: cell-based
Method: as §1, §2

[6] = system: T315I mutated BCR-ABL transcripts; test: Peripheral blood BCR-ABL transcript levels by qRT-PCR and KD mutation analyses during omacetaxine therapy; type: in vivo, human
Method: Presence of T315I is confirmed at study entry at one of two reference labs (University of Texas MD Anderson Cancer Center or University of Heidelberg, Medizinische Fakultat Mannheim).
Peripheral blood BCR-ABL transcript levels are determined during omacetaxine therapy by quantitative real-time polymerase chain reaction (qRT-PCR) and BCR-ABL KD mutation analyses.

[7] = system: BCR-ABL-WT-induced CML; test: Mice with BCR-ABL-WT-induced CML treated with HHT; type: in vivo
Method: (§3) FIG. 2A is a FACS analysis of circulating GFP+ cells in mice with BCR-ABL-WT-induced CML. […] The number of circulating leukemic cells (calculated as percentage of Gr-1+GFP+ cells×white blood cell count) in mice with BCR-ABL-WT-induced CML treated with placebo or HHT for 4 days was determined on day 12 after transplantation. FIG. 2B depicts a bar graph for the leukemic cells as well as a bar graph for spleen weight of the mice treated with placebo or HHT.
as §2
as §3, with “of circulating leukemic GFP+ cells” for “of circulating GFP+ cells”

[8] = system: BCR-ABL-T315I-induced CML; test: Mice with BCR-ABL-T315I-induced CML treated with HHT; type: in vivo
Method: In FIG. 3A, the number of circulating leukemic cells (calculated as percentage of Gr-1+GFP+ cells×white blood cell count) in mice with BCR-ABL-T315I-induced CML treated with placebo or HHT was determined on day 14 after transplantation.
as §2
The number of circulating leukemic cells (calculated as percentage of Gr-1+GFP+ cells×white blood cell count) in mice with BCR-ABL-T315I-induced CML treated with placebo or HHT (0.5 mg/kg) was determined on day 14 after transplantation.

COC(=O)C[C@](O)(CCCC(C)(C)O)C(=O)O[C@@H]1C(OC)=C[C@]23CCCN2CCc2cc4c(cc2[C@H]13)OCO4 [HHT, Homoharringtonine]
expression of ABL ([1]; K562 (myeloid) cells): inhibited
expression of ABL ([1]; lymphoid cells with BCR-ABL): inhibited
expression of ABL ([1]; lymphoid cells with the BCR-ABL T315I mutation): inhibited
expression of MCL-1 [2]: inhibited
proliferation [3]: inhibits the proliferation
proliferation [4]: inhibits the proliferation
proliferation [5]: inhibits the proliferation
evaluable patients with T315I mutated BCR-ABL transcripts reduced below the detection level ([6]; 5/13 evaluable patients): 38%
T315I mutated clone ([6]; CP patients (FIG. 8)): rapidly and substantially reduced
patients in whom the T315I clone is reduced to below the limits of detection ([6]; chronic phase patients (FIG. 8)): 64%
T315I clone ([6]; heavily-pretreated patients with IM-resistant T315I+CML): complete elimination of the T315I clone in a number of heavily-pretreated patients
survival ([7]; BCR-ABL-WT CML mice, HHT vs placebo): significantly increased
number of circulating leukemic cells (percentage of Gr-1+GFP+ cells×white blood cell count) ([7]; HHT 0.5 mg/kg for 4 days, day 12 after transplantation, vs placebo): significantly reduces
size of the spleen (spleen weight) ([7]; HHT 0.5 mg/kg vs placebo): significantly reduces
survival ([8]; BCR-ABL-T315I CML mice, HHT vs placebo): prolonged survival
number of circulating leukemic cells (percentage of Gr-1+GFP+ cells×white blood cell count) ([8]; HHT 0.5 mg/kg, day 14 after transplantation, vs placebo): significantly reduced
